Results taken from patent US7504226B2, “Methods relating to treatment of atherosclerosis” (Cambridge Theranostics Ltd., priority 2001, dated 2009).
Several values for one entry are separate records, joined by “and”; a condition that tells them apart may be missing. Equal values may be shown once. Entries after “also recorded” stand apart in the source; their conditions may differ. Read-outs that look alike come from different tables or passages of the source. Marks after values point to notes of the source that are not given here.

Assays:
[1] = tested on: anti-Chlamydia abzymes; format: biochemical, human; parameters: key to In-vitro Inhibition: + = inhibition; − = no inhibition; settings: for In-vitro Inhibition: abzyme activity, metal chelators; for Anti-Abzyme activity: control 21.7
[2] = tested on: anti-Chlamydia abzymes; format: in vivo, human; settings: for Anti-Chlamydia abzyme activity: individual patients (last line: mean); for individuals positive for abzymes / individuals positive for abzymes (fraction) / abzyme activity of individuals reporting taking aspirin: + aspirin; for Anti-Chlamydia abzymes activity: Table 27 group summary
[3] = human, in vivo
[4] = tested on: patients with ischaemic heart disease; experiment: Severity of angina pectoris by modified Rose-Blackburn Questionnaire; format: in vivo, human; parameters: Score by modified Rose-Blackburn Questionnaire / Rose Blackthorn Score Day 0: scale not given here; settings: for Score by modified Rose-Blackburn Questionnaire: individual patients (last line of each group: mean)
Source text: The progression of the clinical condition of the patients was monitored by the use of the modified Bruce Protocol for treadmill exercise/stress ECG testing and on the Rose-Blackburn Questionnaire (Cardiovascular Survey Methods. WHO, Geneva, 1968).

[5] = tested on: anti-Chlamydia IgG; format: in vivo, human; settings: immuno-fluorescent assay, group summary
[6] = tested on: patients with angina; experiment: Clinical condition of angina patients treated with anti-microbial agent; format: in vivo, human; settings: for Clinical condition: individual patients; for tablets of nitroglycerine daily: patient 5
[7] = tested on: lesion IgG; format: biochemical, human
[8] = tested on: anti-Chlamydia abzymes; format: biochemical, human
[9] = IHD patients negative for anti-Chlamydia IgG, individual patients
[10] = Chlamydia treated with 1% detergents or 10% solution of DMSO

## CC(=O)Oc1ccccc1C(=O)O [Aspirin, acetylsalicylic acid]
[1]; 10 μM of each agent
  Result (inhibition of abzymes): Positive
[1]
  In-vitro Inhibition: +
[2]; Therapy Group D, IHD, aspirin 250 mg daily, before treatment
  Anti-Chlamydia abzyme activity: 103 μM MDA/ml and 253 μM MDA/ml and 178 μM MDA/ml
[2]; Therapy Group D, 60 days after the start of treatment
  Anti-Chlamydia abzyme activity: 63 μM MDA/ml and 103 μM MDA/ml and 83.2 μM MDA/ml
[2]; individual CHD patients, 7 days after starting to take 250 mg of aspirin daily
  Level of activity of anti-Chlamydia abzymes: undetectably low level and 20 μM MDA/ml and 0 μM MDA/ml
[2]; individual CHD patients, before taking aspirin
  Level of activity of anti-Chlamydia abzymes: 100 μM MDA/ml and 45 μM MDA/ml (2×)
[2]; one CHD patient, after a week of 250 mg daily
  inhibition of the abzyme activity: 5 fold
[2]; patient F, Silent Myocardial Ischaemia, aspirin intake 250 mg daily
  Level of activity of anti-Chlamydia abzymes: 10 μM MDA/ml
[2]; patient F, 7 days after re-starting to take 250 mg aspirin daily
  Level of activity of anti-Chlamydia abzymes: 20 μM MDA/ml
[2]; patient F, after stopping taking aspirin for 7 days
  Level of activity of anti-Chlamydia abzymes: 65 μM MDA/ml
[2]; stable angina class I
  individuals positive for abzymes: 17%
  individuals positive for abzymes (fraction): 1/6
[2]; stable angina class I, individuals (r25: mean, n = 6)
  abzyme activity of individuals reporting taking aspirin: 0 (3×) and 10 and 10.0 and 5 and 45
[2]; stable angina class II
  individuals positive for abzymes: 27%
  individuals positive for abzymes (fraction): 4/15
[2]; stable angina class II, individuals (r25: mean, n = 15)
  abzyme activity of individuals reporting taking aspirin: 10 (2×) and 0 (4×) and 5 (4×) and 25 and 22.5 and 3.3 and 16.7 and 9.2 and 30
[2]; stable angina class III
  individuals positive for abzymes: 60%
  individuals positive for abzymes (fraction): 6/10
[2]; stable angina class III, individuals (r25: mean, n = 10)
  abzyme activity of individuals reporting taking aspirin: 0 (3×) and 5 and 35 and 15 and 30 and 105 and 25.5 and 20 and 45
[2]; unstable angina IV
  individuals positive for abzymes: 86%
  individuals positive for abzymes (fraction): 6/7
[2]; unstable angina IV, individuals (r25: mean, n = 7)
  abzyme activity of individuals reporting taking aspirin: 0 and 37 and 90 and 100 and 86.7 and 180 and 130 and 70

## CC[C@H]1OC(=O)[C@H](C)[C@@H](O[C@H]2C[C@@](C)(OC)[C@@H](O)[C@H](C)O2)[C@H](C)[C@@H](O[C@@H]2O[C@H](C)C[C@H](N(C)C)[C@H]2O)[C@](C)(O)C[C@@H](C)CN(C)[C@H](C)[C@@H](O)[C@]1(C)O [Azithromycin]
[3]
  adverse reactions: No adverse reactions
[4]; [9]
  Rose Blackthorn Score Day 0: 21 and 22 and 12 and 19
[4]; group summary, before treatment
  Clinical Status modified Rose G., Blackburn H. Questionnaire: 19.4 ± 1.79
[4]; 60 days after start of the treatment
  Score by modified Rose-Blackburn Questionnaire: 19 and 10 and 13 and 16 and 18 and 15 (2×) and 8 and 11 and 17 (2×)
[4]; before treatment
  Score by modified Rose-Blackburn Questionnaire: 22 and 12 and 19 and 23 and 21 and 25 (3×) and 16 and 10 and 15 and 19.4 ± 1.79
[2]; [9]
  Abzyme activity Day 0: 15 and 90 and 80 and 40
  Abzyme activity Day 60: 6.7 (2×) and 3.3 and 0
[2]; Table 15, 15 days after the start of the treatment
  Anti-Chlamydia abzyme activity: 60 μM MDA/ml and 0 μM MDA/ml (3×) and 8.3 μM MDA/ml and 6.7 μM MDA/ml (3×) and 33 μM MDA/ml and 75 μM MDA/ml and 19.6 μM MDA/ml
[2]; Table 15, 30 days after the start of the treatment
  Anti-Chlamydia abzyme activity: 37 μM MDA/ml and 0 μM MDA/ml (3×) and 28 μM MDA/ml and 3.3 μM MDA/ml (2×) and 10 μM MDA/ml and 78 μM MDA/ml and 17.7 μM MDA/ml
[2]; Table 15, stable angina, 500 mg once per day, before treatment
  Anti-Chlamydia abzyme activity: 40 μM MDA/ml (2×) and 50 μM MDA/ml and 15 μM MDA/ml and 10 μM MDA/ml and 35 μM MDA/ml and 85 μM MDA/ml and 30 μM MDA/ml (2×) and 45.9 μM MDA/ml and 90 μM MDA/ml and 80 μM MDA/ml
[2]; 60 days after treatment
  Anti-Chlamydia abzymes activity: 1.6 ± 0.89 ^ μM/MDA/ml
[2]; before treatment
  Anti-Chlamydia abzymes activity: 47.5 ± 8.96 μM/MDA/ml
[2]; Therapy Group A, IHD, 500 mg daily, before treatment
  Anti-Chlamydia abzyme activity: 90 μM MDA/ml and 80 μM MDA/ml and 40 μM MDA/ml (2×) and 50 μM MDA/ml and 15 μM MDA/ml and 28 μM MDA/ml and 35 μM MDA/ml and 85 μM MDA/ml and 30 μM MDA/ml (2×) and 47.5 μM MDA/ml
[2]; Therapy Group A, 15 days after the start of treatment
  Anti-Chlamydia abzyme activity: 6.7 μM MDA/ml (3×) and 0 μM MDA/ml (3×) and 60* μM MDA/ml and 8.3 μM MDA/ml and 33 μM MDA/ml and 75* μM MDA/ml and 52* μM MDA/ml and 22.5 μM MDA/ml
[2]; Therapy Group A, 30 days after the start of treatment
  Anti-Chlamydia abzyme activity: 78** μM MDA/ml and 0 μM MDA/ml (3×) and 37* μM MDA/ml and 28** μM MDA/ml and 3.3 μM MDA/ml (2×) and 10 μM MDA/ml (2×) and 78* μM MDA/ml and 22.5 μM MDA/ml
[2]; Therapy Group A, 45 days after the start of treatment
  Anti-Chlamydia abzyme activity: 17 μM MDA/ml and 0 μM MDA/ml (5×) and 20* μM MDA/ml and 43* μM MDA/ml and 3.3 μM MDA/ml (2×) and 5.0 μM MDA/ml and 7.4 μM MDA/ml
[2]; Therapy Group A, 60 days after the start of treatment
  Anti-Chlamydia abzyme activity: 3.3 μM MDA/ml and 6.7 μM MDA/ml (2×) and 0 μM MDA/ml (7×) and 0.5 μM MDA/ml and 1.6 μM MDA/ml
[5]; 60 days after treatment
  Anti-Chlamydia IgG: 0 (titers)^−1
[5]; before treatment
  Anti-Chlamydia IgG: 43.6 (titers)^−1
[6]; after 15 days of treatment
  Clinical condition: angina class II;; also recorded: Stable condition;
  tablets of nitroglycerine daily: 5 tablets of nitroglycerine
[6]; before treatment
  Clinical condition: angina class III;; also recorded: Unstable angina;
  tablets of nitroglycerine daily: 10 tablets of

## C[S+](C)[O-] [DMSO]
[7]; LDL 480 μg of protein, +1% agent, control 0.49 ± 0.023
  Level of MDA production by 0.82 μg of lesion IgG: 0 µM
[8]; [10]
  development of lipid oxidation reaction: completely abrogated

## O=C(O)CN(CCN(CC(=O)O)CC(=O)O)CCN(CC(=O)O)CC(=O)O [DTPA]
[1]; 10 μM of each agent
  Result (inhibition of abzymes): Negative
[1]
  In-vitro Inhibition: −

## O=[N+]([O-])OCC(CO[N+](=O)[O-])O[N+](=O)[O-] [Glyceryl Trinitrate]
[1]; 4.4 μM
  Anti-Abzyme activity: 0 μM MDA/ml
[1]; 22 μM
  Anti-Abzyme activity: 0 μM MDA/ml
[1]; 44 μM
  Anti-Abzyme activity: 0 μM MDA/ml
[1]; 220 μM
  Anti-Abzyme activity: 0 μM MDA/ml

## O=[N+]([O-])O[C@H]1CO[C@H]2[C@@H]1OC[C@H]2O[N+](=O)[O-] [Isosorbide Dinitrate]
[1]; 42 μM
  Anti-Abzyme activity: 0 μM MDA/ml
[1]; 211 μM
  Anti-Abzyme activity: 0 μM MDA/ml

## [N-]=[N+]=[N-].[Na+] [NaN3]
[1]
  Result (inhibition of abzymes): Positive

## CC(C)(S)[C@@H](N)C(=O)O [Penicillamine]
[1]; 10 μM of each agent
  Result (inhibition of abzymes): Positive
[1]
  In-vitro Inhibition: +

## O=C(O)c1ccccn1 [Picolinic acid]
[1]; 10 μM of each agent
  Result (inhibition of abzymes): Positive
[1]
  In-vitro Inhibition: +

## CCCCCCCCCCCCOS(=O)(=O)[O-].[Na+] [SDS]
[8]
  lipid oxidising reaction in the test system: no lipid oxidising reaction

## N.N.O=S(=O)(O)O [ammonium sulphate]
[8]
  lipid oxidising reaction in the test system: no lipid oxidising reaction

## O=C(O)c1ccccc1 [benzoic acid]
[7]
  Level of MDA production by 0.82 μg of lesion IgG: 0 µM

## C=O [formalin]
[8]
  lipid oxidising reaction in the test system: no lipid oxidising reaction

## O=C[O-].[Na+] [sodium formate]
[7]; LDL 480 μg of protein, +0.1 M agent, control 0.49 ± 0.023
  Level of MDA production by 0.82 μg of lesion IgG: 0 µM

## octylphenoxypoly(ethyleneoxy)ethanol [IGEPAL CA-630]
[8]; [10]
  development of lipid oxidation reaction: completely abrogated
[8]; Chlamydia treated with non-ionic detergent
  oxidation of the lipids in the bacteria by the extracted abzymes: abolished

## polyoxyethylene Octyl phenyl ether [TRITON X-100]
[8]
  development of lipid oxidation reaction: completely abrogated
  oxidation of the lipids in the bacteria by the extracted abzymes: abolished
